Reference: article PMC9616048, “Thermal proteome profiling reveals Haemonchus orphan protein HCO_011565 as a target of the nematocidal small molecule UMW-868” (Frontiers in Pharmacology, 2022)

Legend:
[1] = tested on: exsheathed third-stage larvae (xL3s) of H. contortus; assay: High throughput screen, xL3 motility (infrared light beam-interference); assay type: cell-based; conditions: Haemonchus contortus, 90 h, read-out: Motility reduction at 90 h (%)
Experimental: An established platform was used for compound screening ([Taki et al., 2021a]). Using a semi-automated liquid handling robot (VIAFLO ASSIST PLUS, Integra Biosciences), compounds were individually diluted to […] in LB* containing 0.2% (v/v) DMSO and then dispensed in 20 µl into the wells of sterile 384-well flat bottom microtitre plates (cat. no. 3680; Corning); 320 compounds were arrayed on each plate, with 16 wells being negative controls (with LB* + 0.2% DMSO) and four wells containing each monepantel (Zolvix; Elanco), moxidectin (Cydectin; Virbac), monepantel + abamectin (Zolvix Plus; Elanco) and compound MIPS-0018666 (abbreviated here as M-666) ([Le et al., 2018]) as positive controls (20 µM). Following the dilution and dispensing of compounds into plates, 80 H. contortus xL3s in 20 μl of LB* were transferred to individual wells; after this step, the final concentrations were 20 µM of test- or positive-control compound, and 0.2% of DMSO. During dispensing, xL3s were maintained in a homogenous suspension using a constant stream of bubbles produced employing an aquarium pump (H2Pro). Plates containing H. contortus xL3s were incubated at 38 °C, 10% (v/v) CO2 and >90% relative humidity.
After 90 h of incubation with compounds (20 μM), H. contortus xL3s motility was measured for 15 min in individual wells of each plate by infrared light beam-interference ([Simonetta and Golombek, 2007]) using a WMicroTracker ONE instrument (Phylumtech). Raw data captured were normalised against measurements obtained for the positive (monepantel) and negative (LB* + 0.2% DMSO) controls to remove plate-to-plate variation by calculating the percentage of motility using the program GraphPad Prism (v.9.1.2; GraphPad Software). A compound was considered active (“hit”) if it reduced larval motility by ≥ 70%. To continually assess the performance of the screening assay, the Z′-factor ([Zhang et al., 1999]) was calculated (using data for the DMSO and the M-666 controls) for individual plates (n = 43) and was consistently ≥0.7; reliable assays achieve a Z′-factor of between 0.5 and 1. The signal to background (S/B) ratio (for the same controls) ([Sui and Wu, 2007]) was consistently >200.

[2] = tested on: H. contortus xL3 to L4 development; assay: High throughput screen, larval development and phenotype at 168 h; assay type: cell-based, Haemonchus contortus; conditions: for inhibition at 20 µM: Haemonchus contortus, development to L4; for Abnormal phenotype detected at 168 h: 20 µM
Experimental: Following the measurement of xL3 motility, plates were incubated again for 78 h (i.e., a total of 168 h) under the same conditions. Thereafter, 40 µl of 1% (v/v) iodine were added to individual wells, and worms examined using a light microscope (M80, Leica) at 60-times magnification to assess larval development, based on the presence/absence of a well-developed pharynx ([Sommerville, 1966]), and/or phenotypic alterations with respect to untreated xL3s.

Structure (SMILES) | inhibition at 20 µM [1] [%] | inhibition at 20 µM [2] [%] | Abnormal phenotype detected at 168 h [2]
N#CC(C#N)=NNc1ccc(C(F)(F)F)cc1 [MBHF-hit1, 2-{2-[4-(trifluoromethyl)phenyl]hydrazono}malononitrile] | 102 | 100 | –
C(#Cc1ccc(-c2cc[nH]n2)s1)c1ccccc1 [MBHF-hit2, 3-[5-(2-phenyleth-1-ynyl)-2-thienyl]-1H-pyrazole] | 98.4 | 100 | Cur, Evi
CC(=NOc1nc(-c2ccccc2)ns1)c1cccs1 [MBHF-hit3, 1-(2-thienyl)-1-ethanone O-(3-phenyl-1,2,4-thiadiazol-5-yl)oxime] | 96.4 | < 80 | Cur, Evi
CCCCOc1ccc(-c2ccc(C#N)cc2)cc1 [MBHF-hit4, 4'-butoxy[1,1'-biphenyl]-4-carbonitrile] | 95.6 | 100 | Cur, Evi
N#CC(=NNc1ccc(Cl)cc1Cl)C(=O)c1ccc(Cl)cc1 [MBHF-hit5, 3-(4-chlorophenyl)-2-[2-(2,4-dichlorophenyl)hydrazono]-3-oxopropanenitrile] | 95.2 | 100 | –
C(#Cc1ccc(-c2ccn[nH]2)cc1)c1ccccc1 [MBHF-hit6, 5-[4-(2-phenyleth-1-ynyl)phenyl]-1H-pyrazole] | 94 | 100 | Cur, Evi
CSc1c(-c2ccc(Cl)cc2)[nH]c2ccccc12 [MBHF-hit7, 2-(4-chlorophenyl)-3-(methylthio)-1H-indole] | 91.9 | 100 | Cur, Evi
N#Cc1c(Cl)c(Cl)c(Cl)c(Cl)c1C#N [MBHF-hit8, 3,4,5,6-tetrachlorophthalonitrile] | 91 | < 80 | –
O=C(C=CSc1ccc(Cl)cc1)c1cccs1 [MBHF-hit9, 3-[(4-chlorophenyl)thio]-1-(2-thienyl)prop-2-en-1-one] | 89.4 | 100 | –
O=C(c1cc(C(F)(F)F)cc(C(F)(F)F)c1)N1CCC(O)(c2ccc(Cl)cc2)CC1 [MBHF-hit10, [3,5-bis(trifluoromethyl)phenyl][4-(4-chlorophenyl)-4-hydroxypiperidino]methanone] | 84.2 | < 80 | –
Nc1ccccc1C(=O)N1CCN(c2ccc([N+](=O)[O-])cn2)CC1 [MBHF-hit11, (2-aminophenyl)[4-(5-nitro-2-pyridyl)piperazino]methanone] | 82.7 | < 80 | –
O=C(Nc1ccc(F)cc1)Nc1cnn(-c2ccc([N+](=O)[O-])cc2)c1C(F)(F)F [MBHF-hit12, N-(4-fluorophenyl)-N'-[1-(4-nitrophenyl)-5-(trifluoromethyl)-1H-pyrazol-4-yl]urea] | 82.3 | 80 to 99 | Cur, Evi
CC1=CSC(=C(C#N)C(=O)c2ccccc2Cl)N1c1ccccc1Cl [MBHF-hit13, 3-(2-chlorophenyl)-2-[3-(2-chlorophenyl)-4-methyl-1,3-thiazol-2(3H)-ylidene]-3-oxopropanenitrile] | 78.8 | < 80 | –
Cc1ccc2oc(=O)n(CCC(N)=NOC(=O)c3ccccc3)c2c1 [MBHF-hit14, N'-(benzoyloxy)-3-[5-methyl-2-oxo-1,3-benzoxazol-3(2H)-yl]propanimidamide] | 81.6 | < 80 | –
NC(=O)C1CCN(C(=O)c2ccc(Oc3cc(Cl)cc(Cl)c3)o2)CC1 [MBHF-hit15, 1-{[5-(3,5-dichlorophenoxy)-2-furyl]carbonyl}-4-piperidinecarboxamide] | 78.7 | < 80 | –
COc1ccc(SCc2nsc(Sc3ccc(OC)cc3)n2)cc1 [MBHF-hit16, 5-[(4-methoxyphenyl)thio]-3-{[(4-methoxyphenyl)thio]methyl}-1,2,4-thiadiazole] | 78.5 | 80 to 99 | Cur, Evi
N#CC(=NNc1cccc(C(F)(F)F)c1)C(=O)c1csc(-c2cccnc2)n1 [MBHF-hit18, 3-oxo-3-[2-(3-pyridyl)-1,3-thiazol-4-yl]-2-{2-[3-(trifluoromethyl)phenyl]hydrazono}propanenitrile] | 77.1 | < 80 | –

Structure (SMILES) | inhibition at 20 µM [1] [%] | inhibition at 20 µM [2] [%] | Abnormal phenotype detected at 168 h [2]
CCCc1ccc(-c2ccc(C#N)cc2)nc1 [MBHF-hit19, 4-(5-propyl-2-pyridyl)benzonitrile] | 76.9 | < 80 | –
O=C(c1ccc(-c2cccs2)s1)c1ccc(F)cc1F [MBHF-hit20, (2,4-difluorophenyl)[5-(2-thienyl)-2-thienyl]methanone] | 76.7 | 100 | Str, Cur
O=C1c2ccccc2C(=O)N1CCSCc1cccc(C(F)(F)F)c1 [MBHF-hit21, 2-(2-{[3-(trifluoromethyl)benzyl]thio}ethyl)-1H-isoindole-1,3(2H)-dione] | 76.5 | 100 | Cur, Evi
CC12NC(=O)NC1(C)NC(=O)N2 (stereo not drawn) [MBHF-hit22, 3a,6a-dimethylperhydroimidazo[4,5-d]imidazole-2,5-dione] | 76.3 | < 80 | –
CC(C)c1cc(Br)c(NC(=O)NCc2ccco2)c(Br)c1 [MBHF-hit23, N-(2,6-dibromo-4-isopropylphenyl)-N'-(2-furylmethyl)urea] | 74.8 | < 80 | –
Cc1nc2c(cnn2-c2ccccc2)c(=O)o1 [MBHF-hit24, 6-methyl-1-phenylpyrazolo[3,4-d][1,3]oxazin-4(1H)-one] | 74.6 | < 80 | –
CCCCCc1cnc(-c2ccc(C#N)cc2)nc1 [MBHF-hit25, 4-(5-pentylpyrimidin-2-yl)benzonitrile] | 74.5 | 100 | Cur, Evi
Clc1ccc(Oc2ccnc3cc(Cl)ccc23)cc1 [MBHF-hit26, 7-chloro-4-(4-chlorophenoxy)quinoline] | 73.9 | 80 to 99 | Cur, Evi
COc1c(C(=O)NCc2ccc(Cl)cc2)csc1Cl [MBHF-hit27, 5-chloro-N-(4-chlorobenzyl)-4-methoxy-3-thiophenecarboxamide] | 73.4 | < 80 | Cur, Evi
CC(=O)c1ccc(NC(=O)CSc2nnc(-c3ccco3)n2C)cc1 [MBHF-hit28, N-(4-acetylphenyl)-2-{[5-(2-furyl)-4-methyl-4H-1,2,4-triazol-3-yl]sulfanyl}acetamide] | 72.7 | < 80 | –
CS(=O)(=O)c1ccc2ccn(O)c2c1 [MBHF-hit29, 6-(methylsulfonyl)-1H-indol-1-ol] | 72 | < 80 | –
O=S1(=O)CC=C(Cl)C1 [MBHF-hit30, 3-chloro-2,5-dihydro-1H-1lambda~6~-thiophene-1,1-dione] | 71.5 | < 80 | –
O=[N+]([O-])c1ccc2c(c1)CCN2S(=O)(=O)c1ccccc1 [MBHF-hit31, 5-nitro-1-(phenylsulfonyl)indoline] | 71.5 | < 80 | –
c1ccc(COc2ccc(CCC3OCCO3)cc2)cc1 [MBHF-hit32, 2-[4-(benzyloxy)phenethyl]-1,3-dioxolane] | 71.1 | < 80 | –
FC(F)(F)c1ccc(SCc2ccc(-c3ncns3)cc2)nc1 [MBHF-hit33, 5-[4-({[5-(trifluoromethyl)-2-pyridyl]thio}methyl)phenyl]-1,2,4-thiadiazole] | 70.3 | 80 to 99 | Cur, Evi
CSC(=NS(=O)(=O)c1ccc(C)cc1)N(C)C [MBHF-hit34, N1-[(dimethylamino)(methylthio)methylidene]-4-methylbenzene-1-sulfonamide] | 70.3 | < 80 | –
OC(CNCCNc1nccc(C(F)(F)F)n1)c1ccccc1 (stereo not drawn) [MBHF-hit35, 1-phenyl-2-[(2-{[4-(trifluoromethyl)pyrimidin-2-yl]amino}ethyl)amino]ethan-1-ol] | 70.2 | < 80 | –
